Data published in the NIST ThermoML archive (doi:10.1016/j.jct.2019.02.028).
“And” between values parts separate entries of the source, which are not always exact repeats. Identical values can stand only once. ± gives the expanded uncertainty stated by the source.

Assay: xn = mol fraction of the nth substance listed
Details: Gas, Burnett expansion method

C=C(F)C(F)(F)F [2,3,3,3-tetrafluoro-1-propene] + FCF
Details | mass density
373.17 K, 4066.8 kPa, x2 = 0.259 | 238.02 ± 2.8 kg/m3
373.17 K, 4925.9 kPa, x2 = 0.874 | 143.64 ± 2.3 kg/m3
373.18 K, 619.83 kPa, x2 = 0.259 | 20.68 ± 0.16 kg/m3
373.18 K, 900.76 kPa, x2 = 0.449 | 26.92 ± 0.23 kg/m3
373.18 K, 906.18 kPa, x2 = 0.259 | 31.05 ± 0.22 kg/m3
373.18 K, 916.21 kPa, x2 = 0.874 | 18.76 ± 0.21 kg/m3
373.18 K, 1093.4 kPa, x2 = 0.119 | 41.92 ± 0.24 kg/m3
373.18 K, 1339 kPa, x2 = 0.874 | 28.18 ± 0.32 kg/m3
373.18 K, 1863.1 kPa, x2 = 0.449 | 60.74 ± 0.57 kg/m3
373.18 K, 2517.6 kPa, x2 = 0.259 | 105.24 ± 1.2 kg/m3
373.18 K, 2728.4 kPa, x2 = 0.874 | 63.56 ± 0.72 kg/m3
373.18 K, 3301.3 kPa, x2 = 0.259 | 158.31 ± 2.2 kg/m3
373.19 K, 755.34 kPa, x2 = 0.119 | 27.91 ± 0.14 kg/m3
373.19 K, 1931.1 kPa, x2 = 0.874 | 42.32 ± 0.49 kg/m3
373.19 K, 2828.2 kPa, x2 = 0.119 | 142.15 ± 1.3 kg/m3
373.2 K, 624.61 kPa, x2 = 0.874 | 12.49 ± 0.15 kg/m3
373.2 K, 3505 kPa, x2 = 0.119 | 213.51 ± 3.3 kg/m3
373.2 K, 4006.2 kPa, x2 = 0.119 | 320.47 ± 6.9 kg/m3
373.2 K, 4661.9 kPa, x2 = 0.259 | 359.6 ± 5 kg/m3
373.21 K, 1306.4 kPa, x2 = 0.259 | 46.64 ± 0.34 kg/m3
378.05 K, 2079.9 kPa, x2 = 0.698 | 53.99 ± 0.5 kg/m3
378.06 K, 1451.7 kPa, x2 = 0.698 | 35.94 ± 0.32 kg/m3
378.07 K, 5426.1 kPa, x2 = 0.449 | 308.92 ± 3.2 kg/m3
378.08 K, 622.36 kPa, x2 = 0.449 | 17.91 ± 0.16 kg/m3
378.08 K, 2782.2 kPa, x2 = 0.874 | 63.55 ± 0.72 kg/m3
378.08 K, 2911.8 kPa, x2 = 0.698 | 81.09 ± 0.78 kg/m3
378.08 K, 3552.8 kPa, x2 = 0.449 | 136.97 ± 1.5 kg/m3
378.08 K, 4525.2 kPa, x2 = 0.449 | 205.67 ± 2.4 kg/m3
378.09 K, 1328.7 kPa, x2 = 0.449 | 40.42 ± 0.36 kg/m3
378.09 K, 1878.5 kPa, x2 = 0.259 | 70.04 ± 0.61 kg/m3
378.09 K, 2649.2 kPa, x2 = 0.449 | 91.19 ± 0.93 kg/m3
378.09 K, 3936.7 kPa, x2 = 0.698 | 121.78 ± 1.5 kg/m3
378.09 K, 4937.5 kPa, x2 = 0.259 | 358.03 ± 3.3 kg/m3
378.09 K, 5074.6 kPa, x2 = 0.698 | 182.93 ± 2.3 kg/m3
378.1 K, 678.04 kPa, x2 = 0.698 | 15.93 ± 0.14 kg/m3
378.1 K, 920.5 kPa, x2 = 0.259 | 31.05 ± 0.22 kg/m3
378.1 K, 997.84 kPa, x2 = 0.698 | 23.93 ± 0.21 kg/m3
378.1 K, 1582.4 kPa, x2 = 0.119 | 62.96 ± 0.36 kg/m3
378.1 K, 1897.6 kPa, x2 = 0.449 | 60.71 ± 0.56 kg/m3
378.1 K, 2190.4 kPa, x2 = 0.119 | 94.57 ± 0.59 kg/m3
378.1 K, 3832.4 kPa, x2 = 0.874 | 95.49 ± 1.1 kg/m3
378.1 K, 4232.9 kPa, x2 = 0.259 | 237.67 ± 2.6 kg/m3
378.1 K, 5071.5 kPa, x2 = 0.874 | 143.48 ± 2.2 kg/m3
378.11 K, 629.16 kPa, x2 = 0.259 | 20.67 ± 0.16 kg/m3
378.11 K, 767.1 kPa, x2 = 0.119 | 27.9 ± 0.14 kg/m3
378.11 K, 914.69 kPa, x2 = 0.449 | 26.91 ± 0.23 kg/m3
378.11 K, 1360.2 kPa, x2 = 0.874 | 28.17 ± 0.32 kg/m3
378.11 K, 1964.7 kPa, x2 = 0.874 | 42.31 ± 0.49 kg/m3
378.11 K, 2577.3 kPa, x2 = 0.259 | 105.22 ± 1.2 kg/m3
378.11 K, 2909.1 kPa, x2 = 0.119 | 142.06 ± 1.3 kg/m3
378.12 K, 633.28 kPa, x2 = 0.874 | 12.49 ± 0.15 kg/m3
378.12 K, 929.88 kPa, x2 = 0.874 | 18.75 ± 0.21 kg/m3
378.12 K, 1329.1 kPa, x2 = 0.259 | 46.64 ± 0.34 kg/m3
378.12 K, 3399.6 kPa, x2 = 0.259 | 158.16 ± 2.1 kg/m3
378.12 K, 3642.1 kPa, x2 = 0.119 | 213.38 ± 3 kg/m3
378.12 K, 4237.1 kPa, x2 = 0.119 | 320.38 ± 5.9 kg/m3
378.13 K, 1112 kPa, x2 = 0.119 | 41.91 ± 0.24 kg/m3
382.98 K, 1475.1 kPa, x2 = 0.698 | 35.93 ± 0.32 kg/m3
382.98 K, 2117.2 kPa, x2 = 0.698 | 53.97 ± 0.49 kg/m3
382.99 K, 631.25 kPa, x2 = 0.449 | 17.91 ± 0.16 kg/m3
383 K, 1350.2 kPa, x2 = 0.449 | 40.4 ± 0.35 kg/m3
383 K, 2705.6 kPa, x2 = 0.449 | 91.15 ± 0.92 kg/m3
383 K, 2835.7 kPa, x2 = 0.874 | 63.53 ± 0.72 kg/m3
383 K, 3918.9 kPa, x2 = 0.874 | 95.42 ± 1.1 kg/m3
383 K, 4682.2 kPa, x2 = 0.449 | 205.63 ± 2.3 kg/m3
383 K, 5686.5 kPa, x2 = 0.449 | 308.85 ± 3.3 kg/m3
383.01 K, 928.35 kPa, x2 = 0.449 | 26.9 ± 0.23 kg/m3
383.01 K, 1476 kPa, x2 = 0.698 | 35.93 ± 0.32 kg/m3
383.01 K, 2118 kPa, x2 = 0.698 | 53.97 ± 0.49 kg/m3
383.01 K, 2705.6 kPa, x2 = 0.449 | 91.15 ± 0.92 kg/m3
383.01 K, 2972.2 kPa, x2 = 0.698 | 81.06 ± 0.77 kg/m3
383.01 K, 3646.5 kPa, x2 = 0.449 | 136.9 ± 1.5 kg/m3
383.01 K, 4036.2 kPa, x2 = 0.698 | 121.75 ± 1.5 kg/m3
383.01 K, 4682.4 kPa, x2 = 0.449 | 205.63 ± 2.3 kg/m3
383.01 K, 5245.7 kPa, x2 = 0.698 | 182.87 ± 2.2 kg/m3
383.02 K, 928.34 kPa, x2 = 0.449 | 26.9 ± 0.23 kg/m3
383.02 K, 1012.8 kPa, x2 = 0.698 | 23.92 ± 0.21 kg/m3
383.02 K, 1381.5 kPa, x2 = 0.874 | 28.16 ± 0.32 kg/m3
383.02 K, 1914.9 kPa, x2 = 0.259 | 70.04 ± 0.65 kg/m3
383.02 K, 1937.6 kPa, x2 = 0.449 | 60.69 ± 0.56 kg/m3
383.02 K, 1937.7 kPa, x2 = 0.449 | 60.69 ± 0.56 kg/m3
383.02 K, 2238 kPa, x2 = 0.119 | 94.52 ± 0.66 kg/m3
383.02 K, 2635.6 kPa, x2 = 0.259 | 105.19 ± 1.1 kg/m3
383.02 K, 2635.8 kPa, x2 = 0.259 | 105.19 ± 1.1 kg/m3
383.02 K, 2972.4 kPa, x2 = 0.698 | 81.06 ± 0.77 kg/m3
383.02 K, 3646.6 kPa, x2 = 0.449 | 136.9 ± 1.5 kg/m3
383.02 K, 3919.7 kPa, x2 = 0.874 | 95.42 ± 1.1 kg/m3
383.02 K, 4035.8 kPa, x2 = 0.698 | 121.75 ± 1.5 kg/m3
383.02 K, 4396.6 kPa, x2 = 0.259 | 237.32 ± 2.4 kg/m3
383.02 K, 5211.2 kPa, x2 = 0.259 | 356.45 ± 6.4 kg/m3 and 356.44 ± 6.4 kg/m3
383.02 K, 5215.7 kPa, x2 = 0.874 | 143.31 ± 2.2 kg/m3
383.02 K, 5215.8 kPa, x2 = 0.874 | 143.31 ± 2.2 kg/m3
383.02 K, 5245.8 kPa, x2 = 0.698 | 182.87 ± 2.2 kg/m3
383.03 K, 934.81 kPa, x2 = 0.259 | 31.04 ± 0.22 kg/m3
383.03 K, 1350.5 kPa, x2 = 0.449 | 40.4 ± 0.35 kg/m3
383.03 K, 1351.5 kPa, x2 = 0.259 | 46.63 ± 0.34 kg/m3
383.03 K, 1381.4 kPa, x2 = 0.874 | 28.16 ± 0.32 kg/m3
383.03 K, 1611.8 kPa, x2 = 0.119 | 62.93 ± 0.39 kg/m3
383.03 K, 1611.9 kPa, x2 = 0.119 | 62.93 ± 0.39 kg/m3
383.03 K, 1915 kPa, x2 = 0.259 | 70.04 ± 0.65 kg/m3
383.03 K, 1998.1 kPa, x2 = 0.874 | 42.29 ± 0.48 kg/m3
383.03 K, 2238.3 kPa, x2 = 0.119 | 94.52 ± 0.66 kg/m3
383.03 K, 2836.1 kPa, x2 = 0.874 | 63.53 ± 0.72 kg/m3
383.03 K, 2989.1 kPa, x2 = 0.119 | 141.97 ± 1.2 kg/m3
383.03 K, 3496.5 kPa, x2 = 0.259 | 158 ± 2.1 kg/m3
383.03 K, 3777.6 kPa, x2 = 0.119 | 213.24 ± 2.7 kg/m3
383.03 K, 4397.4 kPa, x2 = 0.259 | 237.31 ± 2.4 kg/m3
383.03 K, 4464.7 kPa, x2 = 0.119 | 320.28 ± 5.2 kg/m3
383.03 K, 4465 kPa, x2 = 0.119 | 320.28 ± 5.2 kg/m3
383.04 K, 638.24 kPa, x2 = 0.259 | 20.67 ± 0.16 kg/m3
383.04 K, 642.12 kPa, x2 = 0.874 | 12.48 ± 0.15 kg/m3
383.04 K, 688.17 kPa, x2 = 0.698 | 15.93 ± 0.14 kg/m3
383.04 K, 778.8 kPa, x2 = 0.119 | 27.9 ± 0.14 kg/m3
383.04 K, 943.49 kPa, x2 = 0.874 | 18.75 ± 0.21 kg/m3
383.04 K, 1130.2 kPa, x2 = 0.119 | 41.9 ± 0.25 kg/m3
383.04 K, 1998.1 kPa, x2 = 0.874 | 42.29 ± 0.48 kg/m3
383.04 K, 2989.2 kPa, x2 = 0.119 | 141.97 ± 1.2 kg/m3
383.04 K, 3777.7 kPa, x2 = 0.119 | 213.24 ± 2.7 kg/m3
383.05 K, 943.52 kPa, x2 = 0.874 | 18.75 ± 0.21 kg/m3
383.05 K, 3496.8 kPa, x2 = 0.259 | 158 ± 2.1 kg/m3
383.06 K, 935.34 kPa, x2 = 0.259 | 31.04 ± 0.22 kg/m3
383.06 K, 1130.4 kPa, x2 = 0.119 | 41.9 ± 0.25 kg/m3
